What all share (experiment): ≥ marks a high value that may be exact or a test limit, other limits are often not marked, values filed in µg/mL are converted to µM
Assay [1] relates to Bacillus subtilis C971.
Assay [2] relates to Corynebacterium xerosis C875.
For assay [3], the system named is Enterococcus faecalis C625.
Assay [4] deals with Escherichia coli DC2.
Assay [5] deals with Escherichia coli UB1005.
Assay [6] concerns Pseudomonas aeruginosa H187.
Assay [7] deals with Pseudomonas aeruginosa H188.
In assay [8] the test system is Salmonella typhimurium C587.
The test system of assay [9] is Salmonella typhimurium C610.
Assay [10] has as its system Staphylococcus aureus ATCC 25923.
The subject of assay [11] is Staphylococcus aureus SAP 0017.
In assay [12] the test system is Staphylococcus epidermidis C621.
Assay [13] has as its system Escherichia coli ATCC 25922.
The subject of assay [14] is Pseudomonas aeruginosa ATCC 27853.
In assay [15] the test system is Staphylococcus epidermidis ATCC 12228.
Assay [16] relates to Staphylococcus aureus 930918-3.
Assay [17] has as its system Staphylococcus aureus ATCC 33591.
For assay [18], the system named is Escherichia coli.
Assay [19] concerns Salmonella enterica subsp. enterica serovar Enteritidis.
The subject of assay [20] is Salmonella sp.
Assay [21] deals with Staphylococcus aureus ATCC 29213.
The test system of assay [22] is Staphylococcus aureus ATCC 43300.
Assay [23] has as its system Yersinia enterocolitica.
For assay [24], the system named is Bacillus subtilis ATCC 6051.
Assay [25] relates to Escherichia coli NEB5alpha.

Among the data in DBAASP are MIC values, retold here.

In brackets after ≈: the same amount, converted by molar mass. Several values for one entry are separate records, joined by “and”; a condition that tells them apart may be missing. Equal entries are not always repeated. A value given as a limit tells only on which side of the number the result lay.

Turning to `CC[C@H](C)[C@H](NC(=O)[C@H](C)NC(=O)[C@H](CCCCN)NC(=O)[C@H](CC(C)C)NC(=O)[C@H](C)NC(=O)[C@@H](NC(=O)[C@H](Cc1cnc[nH]1)NC(=O)[C@H](CC(C)C)NC(=O)[C@@H](NC(=O)[C@@H](NC(=O)[C@H](CCCCN)NC(=O)[C@@H](NC(=O)[C@H](C)NC(=O)[C@H](C)NC(=O)[C@H](CCCCN)NC(=O)[C@H](Cc1ccccc1)NC(=O)[C@@H](NC(=O)[C@H](CCCCN)NC(=O)[C@H](CC(C)C)NC(=O)[C@H](Cc1ccccc1)NC(=O)[C@H](CO)NC(=O)[C@H](CCCCN)NC(=O)[C@H](Cc1c[nH]c2ccccc12)NC(=O)[C@H](CCCCN)NC(C)=O)[C@@H](C)O)C(C)C)[C@@H](C)O)C(C)C)[C@@H](C)O)C(=O)N[C@@H](CO)C(=O)N[C@@H](CO)C(N)=O` [KWKSFLKTFKAAVKTVLHTALKAISS], the MIC (commonly the smallest concentration in the dilution series that meets the test's criterion for growth inhibition) came to 0.861 µM (≈ 2.54 µg/mL) in assay [1]; 0.689 µM (≈ 2.03 µg/mL) in [2]; 6.95 µM (≈ 20.5 µg/mL) in [3]; 1.38 µM (≈ 4.06 µg/mL) in [4]; 2.2 µM (≈ 6.49 µg/mL) in [5]; 3.48 µM (≈ 10.2 µg/mL) in [6]. Also, the MIC in assay [7] turned out to be 5.51 µM (≈ 16.2 µg/mL); in assay [8] it was 6.95 µM (≈ 20.5 µg/mL); in assay [9], 1.38 µM (≈ 4.06 µg/mL); in assay [10], 5.51 µM (≈ 16.2 µg/mL); in [11], 4.37 µM (≈ 12.9 µg/mL); in assay [12] it was 1.38 µM (≈ 4.06 µg/mL).

For the compound `CC[C@H](C)[C@H](NC(=O)[C@H](C)NC(=O)[C@H](CCCCN)NC(=O)[C@H](CC(C)C)NC(=O)[C@H](C)NC(=O)[C@@H](NC(=O)[C@H](Cc1cnc[nH]1)NC(=O)[C@H](CC(C)C)NC(=O)[C@@H](NC(=O)[C@@H](NC(=O)[C@H](CCCCN)NC(=O)[C@H](CO)NC(=O)[C@H](C)NC(=O)[C@H](CO)NC(=O)[C@H](CCCCN)NC(=O)[C@H](Cc1ccccc1)NC(=O)[C@@H](NC(=O)[C@H](CCCCN)NC(=O)[C@H](CC(C)C)NC(=O)[C@H](Cc1ccccc1)NC(=O)[C@H](CO)NC(=O)[C@H](CCCCN)NC(=O)[C@H](Cc1c[nH]c2ccccc12)NC(=O)[C@H](CCCCN)NC(C)=O)[C@@H](C)O)[C@@H](C)O)C(C)C)[C@@H](C)O)C(=O)N[C@@H](CO)C(=O)N[C@@H](CO)C(N)=O` [KWKSFLKTFKSASKTVLHTALKAISS], the MIC in [1] turned out to be 0.86 µM (≈ 2.54 µg/mL); in [2], 0.55 µM (≈ 1.62 µg/mL); in [3] it was 17.5 µM (≈ 51.5 µg/mL); in [13], 8 µM (≈ 23.6 µg/mL); in assay [4] it was 0.86 µM (≈ 2.54 µg/mL); in assay [5] it was 0.86 µM (≈ 2.54 µg/mL). For the same compound, the MIC was 8 µM (≈ 23.6 µg/mL) in assay [14]; 2.2 µM (≈ 6.49 µg/mL) in assay [6]; 3.47 µM (≈ 10.2 µg/mL) in assay [7]; 2.2 µM (≈ 6.49 µg/mL) in [8]; 0.688 µM (≈ 2.03 µg/mL) in assay [9]; 5.5 µM and 8 µM in assay [10]. Also, the MIC came to 4.37 µM (≈ 12.9 µg/mL) in assay [11], 4 µM (≈ 11.8 µg/mL) in assay [15] and 1.38 µM (≈ 4.06 µg/mL) in assay [12].

Regarding `CC[C@H](C)[C@H](NC(=O)[C@H](CCCCN)NC(=O)[C@H](CCCCN)NC(=O)[C@H](CC(C)C)NC(=O)[C@H](CCCCN)NC(=O)[C@H](CCC(=O)O)NC(=O)[C@H](CCCCN)NC(=O)[C@@H](NC(=O)[C@@H](N)CCCCN)[C@@H](C)CC)C(=O)NCC(=O)N[C@@H](CCC(N)=O)C(=O)N[C@@H](CCCCN)C(=O)N[C@H](C(=O)N[C@@H](CCC(N)=O)C(=O)NCC(=O)N[C@@H](CC(C)C)C(=O)N[C@@H](CC(C)C)C(=O)O)[C@@H](C)CC` [KIKEKLKKIGQKIQGLL], the MIC in assay [16] and in assay [17] was not below 127 µM in each case.

With `CC[C@H](C)[C@H](NC(=O)[C@H](CCC(N)=O)NC(=O)[C@@H](N)CCCN=C(N)N)C(=O)N[C@@H](CCCN=C(N)N)C(=O)N[C@@H](Cc1c[nH]c2ccccc12)C(=O)N[C@@H](CCC(N)=O)C(=O)N[C@@H](CCCN=C(N)N)C(N)=O` [RQIRWQR], the MIC in assay [13] is more than 50 µM; in [18], more than 50 µM; in assay [14], more than 50 µM; in [19], not below 50 µM; in assay [20], not below 50 µM; in [21], more than 50 µM. The MIC in [22] is more than 50 µM; in assay [23] it was not below 50 µM.

Turning to `CC[C@H](C)[C@H](NC(=O)[C@H](CC(N)=O)NC(=O)[C@H](CCC(N)=O)NC(=O)[C@@H](N)Cc1cnc[nH]1)C(=O)NCC(=O)N[C@@H](CO)C(=O)N[C@@H](CO)C(=O)N[C@@H](CO)C(=O)N[C@@H](CO)C(=O)N1CCC[C@H]1C(=O)N[C@@H](CC(=O)O)C(=O)N[C@H](C(=O)N[C@@H](Cc1ccc(O)cc1)C(=O)O)[C@@H](C)CC` [HQNIGSSSSPDIY], the MIC in assay [24] and in assay [25] was not below 1000 µM in each case.
